According to PubChem BioAssay (NCI):
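A five-concentration, 48-hour dose response in 96-well plates underlies each endpoint, interpolated linearly between surrounding concentrations. At the TGI there is no net growth.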

What was measured:
Assay in all cases: NCI-60 cell line screen, 48 h
MOLT-4 leukemia = test system: MOLT-4 leukemia
MDA-MB-231 breast = test system: MDA-MB-231 breast
SK-MEL-2 melanoma = test system: SK-MEL-2 melanoma
A549 NSCLC = test system: A549 NSCLC
COLO 205 colon = test system: COLO 205 colon
SF-539 CNS = test system: SF-539 CNS
UACC-257 melanoma = test system: UACC-257 melanoma
SR leukemia = test system: SR leukemia
MDA-N = test system: MDA-N
NCI-H226 lung = test system: NCI-H226 lung
KM12 colon = test system: KM12 colon
HS 578T breast = test system: HS 578T breast
OVCAR-5 ovarian = test system: OVCAR-5 ovarian
HCC-2998 colon = test system: HCC-2998 colon
A498 renal = test system: A498 renal
M14 melanoma = test system: M14 melanoma
SK-OV-3 ovarian = test system: SK-OV-3 ovarian
SF-295 CNS = test system: SF-295 CNS
NCI-H23 lung = test system: NCI-H23 lung
EKVX NSCLC = test system: EKVX NSCLC
HOP-62 NSCLC = test system: HOP-62 NSCLC
OVCAR-3 ovarian = test system: OVCAR-3 ovarian
HCT-116 colon = test system: HCT-116 colon
786-0 renal = test system: 786-0 renal
NCI-H522 lung = test system: NCI-H522 lung
SN12C renal = test system: SN12C renal
SW-620 colon = test system: SW-620 colon
MCF7 breast = test system: MCF7 breast
NCI-H460 lung = test system: NCI-H460 lung
U251 CNS = test system: U251 CNS
RPMI-8226 leukemia = test system: RPMI-8226 leukemia
LOX IMVI melanoma = test system: LOX IMVI melanoma
SK-MEL-5 melanoma = test system: SK-MEL-5 melanoma
OVCAR-8 ovarian = test system: OVCAR-8 ovarian
TK-10 renal = test system: TK-10 renal
UACC-62 melanoma = test system: UACC-62 melanoma
HOP-92 NSCLC = test system: HOP-92 NSCLC
CAKI-1 renal = test system: CAKI-1 renal
SF-268 CNS = test system: SF-268 CNS
K-562 leukemia = test system: K-562 leukemia
DU-145 prostate = test system: DU-145 prostate
CCRF-CEM leukemia = test system: CCRF-CEM leukemia
RXF 393 renal = test system: RXF 393 renal
HL-60(TB) leukemia = test system: HL-60(TB) leukemia
HT29 colon = test system: HT29 colon
PC-3 prostate = test system: PC-3 prostate
ACHN renal = test system: ACHN renal
UO-31 renal = test system: UO-31 renal
SK-MEL-28 melanoma = test system: SK-MEL-28 melanoma
T-47D breast = test system: T-47D breast
SNB-75 CNS = test system: SNB-75 CNS
SNB-19 CNS = test system: SNB-19 CNS
MDA-MB-435 = test system: MDA-MB-435
HCT-15 colon = test system: HCT-15 colon
IGROV1 ovarian = test system: IGROV1 ovarian
NCI/ADR-RES ovarian = test system: NCI/ADR-RES ovarian
BT-549 breast = test system: BT-549 breast
MALME-3M melanoma = test system: MALME-3M melanoma
OVCAR-4 ovarian = test system: OVCAR-4 ovarian
SNB-78 CNS = test system: SNB-78 CNS
M19-MEL melanoma = test system: M19-MEL melanoma
DMS 273 small cell lung = test system: DMS 273 small cell lung
KM20L2 colon = test system: KM20L2 colon
LXFL 529 NSCLC = test system: LXFL 529 NSCLC
XF 498 CNS = test system: XF 498 CNS
DLD-1 colon = test system: DLD-1 colon
DMS 114 small cell lung = test system: DMS 114 small cell lung

SMILES: O=C(CCc1ccc(O)c(O)c1)NCCc1cc(O)cc(O)c1
- TGI (MOLT-4 leukemia): > 100 µM
- TGI (MDA-MB-231 breast): > 100 µM
- TGI (SK-MEL-2 melanoma): > 100 µM
- TGI (A549 NSCLC): > 100 µM
- TGI (COLO 205 colon): > 100 µM
- TGI (SF-539 CNS): > 100 µM
- TGI (UACC-257 melanoma): > 100 µM
- TGI (SR leukemia): > 100 µM
- TGI (MDA-N): 48.1 µM
- TGI (NCI-H226 lung): > 100 µM
- TGI (KM12 colon): > 100 µM
- TGI (HS 578T breast): > 100 µM
- TGI (OVCAR-5 ovarian): > 100 µM
- TGI (HCC-2998 colon): > 100 µM
- TGI (A498 renal): > 100 µM
- TGI (M14 melanoma): > 100 µM
- TGI (SK-OV-3 ovarian): > 100 µM
- TGI (SF-295 CNS): > 100 µM
- TGI (NCI-H23 lung): > 100 µM
- TGI (EKVX NSCLC): > 100 µM
- TGI (HOP-62 NSCLC): > 100 µM
- TGI (OVCAR-3 ovarian): > 100 µM
- TGI (HCT-116 colon): > 100 µM
- TGI (786-0 renal): > 100 µM
- TGI (NCI-H522 lung): > 100 µM
- TGI (SN12C renal): > 100 µM
- TGI (SW-620 colon): > 100 µM
- TGI (MCF7 breast): > 100 µM
- TGI (NCI-H460 lung): > 100 µM
- TGI (U251 CNS): > 100 µM
- TGI (RPMI-8226 leukemia): > 100 µM
- TGI (LOX IMVI melanoma): > 100 µM
- TGI (SK-MEL-5 melanoma): > 100 µM
- TGI (OVCAR-8 ovarian): > 100 µM
- TGI (TK-10 renal): > 100 µM
- TGI (UACC-62 melanoma): > 100 µM
- TGI (HOP-92 NSCLC): > 100 µM
- TGI (CAKI-1 renal): > 100 µM
- TGI (SF-268 CNS): > 100 µM
- TGI (K-562 leukemia): 79.4 µM
- TGI (DU-145 prostate): > 100 µM
- TGI (CCRF-CEM leukemia): > 100 µM
- TGI (RXF 393 renal): > 100 µM
- TGI (HL-60(TB) leukemia): > 100 µM
- TGI (HT29 colon): > 100 µM
- TGI (PC-3 prostate): > 100 µM
- TGI (ACHN renal): > 100 µM
- TGI (UO-31 renal): > 100 µM
- TGI (SK-MEL-28 melanoma): > 100 µM
- TGI (T-47D breast): > 100 µM
- TGI (SNB-75 CNS): > 100 µM
- TGI (SNB-19 CNS): > 100 µM
- TGI (MDA-MB-435): 66.6 µM
- TGI (HCT-15 colon): > 100 µM
- TGI (IGROV1 ovarian): > 100 µM
- TGI (NCI/ADR-RES ovarian): > 100 µM
- TGI (BT-549 breast): > 100 µM

SMILES: COC(=O)C1CN=CN1CCc1ccccc1 (stereo not given)
- TGI (MOLT-4 leukemia): > 100 µM
- TGI (MDA-MB-231 breast): > 100 µM
- TGI (SK-MEL-2 melanoma): > 100 µM
- TGI (A549 NSCLC): > 100 µM
- TGI (COLO 205 colon): > 100 µM
- TGI (SF-539 CNS): > 100 µM
- TGI (UACC-257 melanoma): > 100 µM
- TGI (SR leukemia): > 100 µM
- TGI (MDA-N): > 100 µM
- TGI (NCI-H226 lung): > 100 µM
- TGI (KM12 colon): > 100 µM
- TGI (HS 578T breast): > 100 µM
- TGI (OVCAR-5 ovarian): > 100 µM
- TGI (HCC-2998 colon): > 100 µM
- TGI (A498 renal): > 100 µM
- TGI (M14 melanoma): > 100 µM
- TGI (SK-OV-3 ovarian): > 100 µM
- TGI (SF-295 CNS): > 100 µM
- TGI (NCI-H23 lung): > 100 µM
- TGI (EKVX NSCLC): > 100 µM
- TGI (OVCAR-3 ovarian): > 100 µM
- TGI (HCT-116 colon): > 100 µM
- TGI (786-0 renal): > 100 µM
- TGI (NCI-H522 lung): > 100 µM
- TGI (SW-620 colon): > 100 µM
- TGI (MCF7 breast): > 100 µM
- TGI (NCI-H460 lung): > 100 µM
- TGI (U251 CNS): > 100 µM
- TGI (RPMI-8226 leukemia): > 100 µM
- TGI (LOX IMVI melanoma): > 100 µM
- TGI (SK-MEL-5 melanoma): > 100 µM
- TGI (OVCAR-8 ovarian): > 100 µM
- TGI (TK-10 renal): > 100 µM
- TGI (UACC-62 melanoma): > 100 µM
- TGI (MALME-3M melanoma): > 100 µM
- TGI (HOP-92 NSCLC): > 100 µM
- TGI (CAKI-1 renal): > 100 µM
- TGI (K-562 leukemia): > 100 µM
- TGI (DU-145 prostate): > 100 µM
- TGI (CCRF-CEM leukemia): > 100 µM
- TGI (RXF 393 renal): > 100 µM
- TGI (HL-60(TB) leukemia): > 100 µM
- TGI (HT29 colon): > 100 µM
- TGI (PC-3 prostate): > 100 µM
- TGI (ACHN renal): > 100 µM
- TGI (UO-31 renal): > 100 µM
- TGI (SK-MEL-28 melanoma): > 100 µM
- TGI (T-47D breast): > 100 µM
- TGI (SNB-75 CNS): > 100 µM
- TGI (OVCAR-4 ovarian): > 100 µM
- TGI (SNB-19 CNS): > 100 µM
- TGI (MDA-MB-435): > 100 µM
- TGI (HCT-15 colon): > 100 µM
- TGI (IGROV1 ovarian): > 100 µM
- TGI (NCI/ADR-RES ovarian): > 100 µM
- TGI (BT-549 breast): > 100 µM

SMILES: Cc1cc2c(C)nn(Cc3ccccc3)c2c(C(N)=O)c1C
- TGI (MOLT-4 leukemia): > 100 µM
- TGI (SK-MEL-2 melanoma): > 100 µM
- TGI (A549 NSCLC): > 100 µM
- TGI (COLO 205 colon): > 100 µM
- TGI (SF-539 CNS): > 100 µM
- TGI (UACC-257 melanoma): > 100 µM
- TGI (KM12 colon): > 100 µM
- TGI (OVCAR-5 ovarian): > 100 µM
- TGI (HCC-2998 colon): > 100 µM
- TGI (A498 renal): > 100 µM
- TGI (SNB-78 CNS): > 100 µM
- TGI (M14 melanoma): > 100 µM
- TGI (SK-OV-3 ovarian): > 100 µM
- TGI (SF-295 CNS): > 100 µM
- TGI (NCI-H23 lung): > 100 µM
- TGI (EKVX NSCLC): > 100 µM
- TGI (HOP-62 NSCLC): > 100 µM
- TGI (OVCAR-3 ovarian): > 100 µM
- TGI (HCT-116 colon): > 100 µM
- TGI (786-0 renal): > 100 µM
- TGI (NCI-H522 lung): > 100 µM
- TGI (SN12C renal): > 100 µM
- TGI (SW-620 colon): > 100 µM
- TGI (NCI-H460 lung): > 100 µM
- TGI (U251 CNS): > 100 µM
- TGI (M19-MEL melanoma): > 100 µM
- TGI (RPMI-8226 leukemia): > 100 µM
- TGI (LOX IMVI melanoma): > 100 µM
- TGI (DMS 273 small cell lung): > 100 µM
- TGI (SK-MEL-5 melanoma): > 100 µM
- TGI (OVCAR-8 ovarian): > 100 µM
- TGI (TK-10 renal): > 100 µM
- TGI (UACC-62 melanoma): > 100 µM
- TGI (MALME-3M melanoma): > 100 µM
- TGI (HOP-92 NSCLC): > 100 µM
- TGI (SF-268 CNS): > 100 µM
- TGI (K-562 leukemia): > 100 µM
- TGI (KM20L2 colon): > 100 µM
- TGI (CCRF-CEM leukemia): > 100 µM
- TGI (HT29 colon): > 100 µM
- TGI (ACHN renal): > 100 µM
- TGI (UO-31 renal): > 100 µM
- TGI (SK-MEL-28 melanoma): > 100 µM
- TGI (LXFL 529 NSCLC): > 100 µM
- TGI (SNB-75 CNS): 58.8 µM
- TGI (XF 498 CNS): > 100 µM
- TGI (DLD-1 colon): > 100 µM
- TGI (OVCAR-4 ovarian): > 100 µM
- TGI (DMS 114 small cell lung): > 100 µM
- TGI (SNB-19 CNS): > 100 µM
- TGI (HCT-15 colon): > 100 µM
- TGI (IGROV1 ovarian): > 100 µM
